Results on one compound are retold here after patent US20230416330A1, “Optimized GIP Peptide Analogues” (Antag Therapeutics ApS, priority 2019, published 2023).

The target of one data set is T1, human GIP receptor (Homo sapiens, UniProt P48546).
T1 construct: host or cells: HEK-293 cells, transient transfection (Lipofectamine 2000), cDNA in pCMV-Script vector
T1 sequence (P48546 22-466): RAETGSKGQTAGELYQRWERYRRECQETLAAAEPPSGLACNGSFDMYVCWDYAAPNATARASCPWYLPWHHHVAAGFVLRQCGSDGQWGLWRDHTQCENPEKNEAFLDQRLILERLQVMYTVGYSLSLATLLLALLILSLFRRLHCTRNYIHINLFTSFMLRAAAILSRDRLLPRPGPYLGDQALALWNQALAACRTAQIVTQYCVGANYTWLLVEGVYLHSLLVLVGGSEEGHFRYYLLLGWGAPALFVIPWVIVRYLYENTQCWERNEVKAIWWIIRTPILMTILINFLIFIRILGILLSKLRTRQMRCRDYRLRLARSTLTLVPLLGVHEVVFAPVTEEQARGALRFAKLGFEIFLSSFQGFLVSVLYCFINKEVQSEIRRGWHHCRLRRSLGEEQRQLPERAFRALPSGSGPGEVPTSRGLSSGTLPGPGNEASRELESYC
As to the kind of experiment: cAMP assay Alternative 3 (Schild analysis), antagonist potency pKb. The class given is cell-based. Here is the method: Antagonist potency was also determined by Schild analysis. GIP1-42 EC50 was measured in the absence of antagonist and EC50′ was measured in the presence of increasing concentrations of antagonist. These values were used to calculate a dose ratio (DR=EC50′/EC50) for each antagonist concentration, and log(DR-1) was plotted against log(antagonist concentration).
The in vitro functional assessment of compounds towards human GIP receptor was determined in HEK-293 cells transiently expressing the receptor. On the day of the assay, cells were resuspended in HBSS buffer (Gibco, 14025-50) supplemented with […] (Gibco, 15630-106), 0.1% Pluronic F-68 (Gibco, 24040-032) and 0.1% casein (Sigma, C4765), and plated in 384-well plates at a density of 3500 cells/well. […] The intracellular cAMP was quantitatively determined using the CisBio cAMP Dynamic 2 HTRF Assay Kit. […]
The cAMP-d2 conjugate and the antibody anti-cAMP-Cryptate, both diluted in lysis buffer provided in the kit, were added to the cells according to the manufacturer's protocol. The resulting competitive assay was incubated for 60 minutes at room temperature, and the signal was detected by using a PerkinElmer Envision® instrument with excitation at 320 nm and emission at 665 nm and 620 nm. […]
Background: cAMP levels reflect the balance of adenylyl cyclase and phosphodiesterase activity.

Data set [1] can be described thus: Physical stability: fibril formation in Thioflavin T (ThT) assay with agitation. Conditions: TFA, 25° C., agitation. The class given is physicochemical. An outline of the steps:
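Read-out is continuous ThT fluorescence at 486 nm, with lag time taken where signal reaches 10% between pre- and post-transition baselines. Filtered samples (1, 5, 7.5 or 15 mg/ml; pH 7.4 phosphate buffer or NaOH-adjusted water) were stressed at 25° C. by orbital rotation at 300 rpm with one silica bead per well.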

Data set [2] is described as follows: Solubility by visual inspection of peptide solutions. It counts as physicochemical. Conditions: TFA. The method in brief: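 Solubility scored by eye: clear, colorless appearance after gentle mixing. Samples prepared at 1, 5, 7.5 or 15 mg/ml in either pH 7.4 water (NaOH-adjusted) or 50 mM sodium phosphate buffer, pH 7.4.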

Starred links: 1 amine or outer side, 2 acyl side, 3 side chain; linkers in the order of their positions; H or OH if unused. Residues, ends and D or L forms follow the SMILES beside them. *: point of attachment. C16 diacid = O=C(O)CCCCCCCCCCCCCCC(=O)*; Glutaryl = O=C(CCCC(=O)[*:2])[*:1]

As for `CC[C@H](C)[C@H](NC(=O)[C@H](CO)NC(=O)[C@H](Cc1ccc(O)cc1)NC(=O)[C@H](CC(=O)O)NC(=O)[C@H](CO)NC(=O)[C@@H](NC(=O)[C@H](Cc1ccccc1)NC(=O)[C@@H](NC(=O)CNC(=O)CCCC(=O)O)[C@@H](C)O)[C@@H](C)CC)C(=O)N[C@@H](C)C(=O)N[C@@H](CCSC)C(=O)N[C@@H](CC(=O)O)C(=O)N[C@@H](CCCCN)C(=O)N[C@H](C(=O)N[C@@H](CCCCNC(=O)CCCCCCCCCCCCCCC(=O)O)C(=O)N[C@@H](CCC(N)=O)C(=O)N[C@@H](CCC(N)=O)C(=O)N[C@@H](CC(=O)O)C(=O)N[C@@H](Cc1ccccc1)C(=O)N[C@H](C(=O)N[C@@H](CCC(=O)O)C(=O)N[C@@H](Cc1c[nH]c2ccccc12)C(=O)N[C@@H](CC(C)C)C(=O)N[C@@H](CC(C)C)C(=O)N[C@@H](C)C(=O)N[C@@H](CCC(N)=O)C(=O)N[C@@H](CCCCN)C(=O)N1CCC[C@H]1C(=O)N[C@@H](CO)C(=O)N[C@@H](CO)C(=O)NCC(=O)N[C@@H](C)C(=O)N1CCC[C@H]1C(=O)N1CCC[C@H]1C(=O)N1CCC[C@H]1C(=O)N[C@@H](CO)C(=O)O)C(C)C)[C@@H](C)CC` [AT762] (Glutaryl-GTFISDYSIAMDKIK(C16 diacid)QQDFVEWLLAQKPSSGAPPPS-OH), at human GIP receptor, the Kb was found to be 150 pM. In addition, the “Avr lag time (h)” value is reported as “fnd (Fnd = fibrils not detected within experiment time (96 hours) with agitation.)” in data set [1] (1 mg/ml, Phosphate (7.4)) and “fnd (Fnd = fibrils not detected within experiment time (96 hours) with agitation.)” in data set [1] (5 mg/ml, MilliQ). For the same compound, the Visual appearance entry was “Clear” in data set [2] (1 mg/ml, Phosphate (7.4)) and “Clear” in data set [2] (5 mg/ml, MilliQ).

The term Kb denotes the equilibrium dissociation constant of an antagonist, usually derived from a functional assay.
